Test results: publication PMC13266999, “Designing Antibiotics with Inherent Resistance to Efflux as a Strategy to Revive Discovery against Multidrug-Resistant Pathogens” (Journal of Medicinal Chemistry, 2026)
Where two headings read alike, the source gives them in different places.

Key:
[1] = test system: major human CYP isoforms other than CYP3A (midazolam substrate); assay: Cytochrome P450 inhibition panel; conditions: human recombinant CYP enzymes in microsomal preparations
Experimental: Cytochrome P450 inhibition was assessed in vitro using human recombinant enzymes in microsomal preparations. […] Enzyme activity was quantified by monitoring formation of substrate-specific metabolites, and percent inhibition was calculated relative to vehicle control.

[2] = male, ICR, mouse, in vivo, po
S. haemolyticus = assay: MIC (microbroth dilution); format: cell-based, Staphylococcus haemolyticus; conditions: Staphylococcus haemolyticus, ATCC29970; ATCC 29970; read-out: MIC
Experimental: (§1) All bacteria were maintained on tryptic soy agar (TSA), except Streptococcus spp., which were maintained on Columbia agar plates containing 5% horse blood. All bacterial assays were carried out in tryptic soy broth (TSB), except for Streptococcus spp. which were grown in cation-adjusted Mueller Hinton broth containing 2.5% lysed horse blood. Bacteria were grown to stationary phase in liquid culture overnight, with shaking at 200 rpm, before being back diluted to the relevant starting concentration for each assay below. MICs were measured by the microbroth dilution method. […] Absorbance at OD600 was read on a CLARIOstar spectrophotometer (BMG Labtech) and the MIC was defined as the minimum concentration of compound where no visible growth was detected. The compounds were prepared as a DMSO stock and equivalent concentrations of DMSO had no effect on bacterial growth. MICs were also performed in the presence of the outer membrane permeator, polymyxin b nonapeptide (PMBN) following the same MIC method but with the following variation. The 2-fold dilution series of compound was prepared as above, then 50 μL of PMBN at a final concentration of 30 μg/mL was added to relevant wells, while 50 μL/well of blank media was added to the remaining wells. Bacteria were then added at 50 μL/well for a starting concentration as above. Thirty μg/mL of PMBN had no effect on bacterial growth. The MICs were read and defined as above. All animal procedures were performed by the contract research organization Pharmacology Discovery Services Taiwan in accordance with the Guide for the Care and Use of Laboratory Animals. The procedures were approved by the Institutional Ethics Committee of Pharmacology Discovery Services Taiwan, Ltd. (approval no. AB127662), in compliance with animal welfare legislation in Taiwan.

[3] = test system: Staphylococcus epidermidis, S. hemolyticus and S. saprophyticus; assay: MIC, extended Gram-positive panel (grouped species); format: cell-based, Staphylococcus spp.
Experimental: as §1, with “Thirty μg/mL of PMBN had no effect on bacterial growth.” left out, “All animal procedures were performed by the contract research organization Pharmacology Discovery Services Taiwan in accordance with the Guide for the Care and Use of Laboratory Animals. The procedures were approved by the Institutional Ethics Committee of Pharmacology Discovery Services Taiwan, Ltd. (approval no. AB127662), in compliance with animal welfare legislation in Taiwan.” left out

S. epidermidis = assay: MIC (microbroth dilution); format: cell-based, Staphylococcus epidermidis; conditions: Staphylococcus epidermidis, read-out: MIC
Experimental: as §1, with “All bacterial assays were carried out in tryptic soy broth (TSB), except for Streptococcus spp. which were grown in cation-adjusted Mueller Hinton broth containing 2.5% lysed horse blood.” left out, “The compounds were prepared as a DMSO stock and equivalent concentrations of DMSO had no effect on bacterial growth.” left out, “Thirty μg/mL of PMBN had no effect on bacterial growth.” left out

E. faecium = assay: MIC (microbroth dilution); format: cell-based, Enterococcus faecium; conditions: for MIC: Enterococcus faecium
Experimental: as §1

Streptococcus salivarius = assay: MIC (microbroth dilution); format: cell-based; conditions: ATCC13419, ATCC 13419
Method in brief: (§2)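 Broth microdilution MICs were run in tryptic soy broth, or for Streptococcus spp. in cation-adjusted Mueller Hinton broth with 2.5% lysed horse blood, using overnight stationary-phase cultures back-diluted. MIC was the lowest concentration with no visible growth, with OD600 also read. Some MICs included PMBN at 30 μg/mL final.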

Streptococcus mutans = assay: MIC (microbroth dilution); format: cell-based; conditions: ATCC25175, ATCC 25175
Method in brief: as §2

Streptococcus pneumoniae = assay: MIC (microbroth dilution); format: cell-based; conditions: for MIC: Streptococcus pneumoniae
Method in brief: as §2

Streptococcus oralis = assay: MIC (microbroth dilution); format: cell-based; conditions: ATCC9811, ATCC 9811
Method in brief: as §2

Enterococcus gallinarum = assay: MIC (microbroth dilution); format: cell-based; conditions: VanC (ATCC 49608)
Method in brief: as §2

[4] = test system: Streptococcus intermedius; assay: MIC (microbroth dilution); format: cell-based; conditions: ATCC29663, ATCC 29663
Method in brief: as §2

[5] = test system: Staphylococcus saprophyticus; assay: MIC (microbroth dilution); format: cell-based; conditions: ATCC15305, ATCC 15305
Method in brief: as §2

Streptococcus sanguinis = assay: MIC (microbroth dilution); format: cell-based; conditions: ATCC10556, ATCC 10556
Method in brief: as §2

[6] = test system: S. oralis, S. mutans, S. salivarius, S. sanguinis, and S. pyogenes; assay: MIC, extended Gram-positive panel (grouped species); format: cell-based, Streptococcus spp.
Experimental: as §1, with “Thirty μg/mL of PMBN had no effect on bacterial growth.” left out, “All animal procedures were performed by the contract research organization Pharmacology Discovery Services Taiwan in accordance with the Guide for the Care and Use of Laboratory Animals. The procedures were approved by the Institutional Ethics Committee of Pharmacology Discovery Services Taiwan, Ltd. (approval no. AB127662), in compliance with animal welfare legislation in Taiwan.” left out
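Throughout, for Response (death/test): male ICR mice given oral doses under a stepwise escalation scheme to find the highest tolerated dose.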

C[C@H]1COc2c(N3CC[C@@H](Nc4ncccn4)C3)c(F)cc3c(=O)c(C(=O)O)cn1c23 [Compound 46, (S)-9-Fluoro-3-methyl-7-oxo-10-((R)-3-(pyrimidin-2-ylamino)pyrrolidin-1-yl)-2,3-dihydro-7H-[1,4]oxazino[2,3,4-ij]quinoline-6-carboxylic acid]
≤ 13%: inhibition at 10 µM [1]
0/3: Response (death/test) ([2]; 100 mg/kg) | Response (death/test) ([2]; 100 mg/kg, 24 h) | Response (death/test) ([2]; 100 mg/kg, 48 h) | Response (death/test) ([2]; 100 mg/kg, 72 h) | Response (death/test) ([2]; 200 mg/kg) | Response (death/test) ([2]; 400 mg/kg)

Cc1cc(C)nc(N[C@@H]2CCN(c3c(F)cc4c(=O)c(C(=O)O)cn5c4c3OC[C@@H]5C)C2)n1 [Compound 50, (S)-10-((R)-3-((4,6-Dimethylpyrimidin-2-yl)amino)pyrrolidin-1-yl)-9-fluoro-3-methyl-7-oxo-2,3-dihydro-7H-[1,4]oxazino[2,3,4-ij]quinoline-6-carboxylic acid]
0.125 to 1 µg/mL: MIC range (E. faecium; including VanA, VanB, and VanD phenotypes)
0.5 µg/mL: MIC (S. epidermidis; GIS (NRS7)) | MIC (E. faecium; ATCC700221, VanA (ATCC 700221), read-out: MIC)
0.25 µg/mL: MIC (E. faecium; CCUG56431, VanB (CCUG 56431), read-out: MIC) | MIC (E. faecium; CCUG58354, VanD (CCUG 58354), read-out: MIC) | MIC (Streptococcus salivarius) | MIC (Streptococcus oralis) | MIC (Enterococcus gallinarum; Enterococcus gallinarum, ATCC 49608 / GALLINARUM, read-out: MIC) | MIC (Enterococcus gallinarum) | MIC (Streptococcus sanguinis)
1 µg/mL: MIC (S. epidermidis; GIS (NRS8)) | MIC (E. faecium; ATCC19434, ATCC 19434, read-out: MIC) | MIC (E. faecium; BAA2320, VanA (BAA-2320), read-out: MIC) | MIC (E. faecium; CCUG59167, VanA (TUH44-29; CCUG 59167), read-out: MIC)
0.03 µg/mL: MIC (S. haemolyticus) | MIC (S. epidermidis; ATCC12228, ATCC 12228) | MIC (S. epidermidis; ATCC 51625 / MRSE, MRSE (ATCC 51625)) | MIC (S. epidermidis; NRS101) | MIC (Streptococcus mutans) | MIC [4]
0.03125 to 0.06 µg/mL: MIC range [3]
0.06 to 0.125 µg/mL: MIC range (Streptococcus pneumoniae; including MDR and PRSP strains)
0.125 µg/mL: MIC (E. faecium; CCUG56858) | MIC (Streptococcus pneumoniae; ATCC6301) | MIC (Streptococcus pneumoniae; ATCC49619) | MIC (Streptococcus pneumoniae; ATCC51916) | MIC (Streptococcus pneumoniae; ATCC700676)
0.06 µg/mL: MIC (S. epidermidis; GIS (NRS60)) | MIC (Streptococcus pneumoniae; ATCC700669, ST 23F (ATCC 700669), read-out: MIC) | MIC (Streptococcus pneumoniae; ATCC700673, MDR (ATCC 700673), read-out: MIC) | MIC (Streptococcus pneumoniae; ATCC700675, ATCC 700675, read-out: MIC) | MIC (Streptococcus pneumoniae; ATCC 700677 / PRSP, PRSP (ATCC 700677), read-out: MIC) | MIC (Streptococcus pneumoniae; PRSP (TM532), read-out: MIC) | MIC [5]
0.03 to 0.25 µg/mL: MIC range [6]
